Experimental data: patent US12077503B2, “Substituted cyclic amides and their use as herbicides” (FMC CORPORATION, priority 2015, dated 2024)

Experiments:
Assay in all cases: Test E preemergence
Format in all cases: in vivo
Settings in all cases: scale 0 to 100
[1] = tested on: johnsongrass (Sorghum halepense)
Summary of the method: (§1)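 Visual ratings from 0 (no effect) to 100 (complete control) were made versus controls 14 to 21 d after treatment. Seeds in silt loam were treated preemergence, or plants 2 to 18 cm tall in peat-based medium postemergence, with the test chemical in a surfactant-containing, non-phytotoxic solvent mixture, then held in a greenhouse.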

[2] = tested on: ryegrass, Italian (Italian ryegrass, Lolium multiflorum)
Summary of the method: as §1

[3] = tested on: lambsquarters (Chenopodium album)
Summary of the method: as §1

[4] = tested on: goosegrass (Eleusine indica)
Summary of the method: as §1

[5] = tested on: waterhemp (common waterhemp, Amaranthus rudis)
Summary of the method: as §1

[6] = tested on: Panicum, fall (fall Panicum, Panicum dichotomiflorum)
Summary of the method: as §1

[7] = tested on: sandbur (southern sandbur, Cenchrus echinatus)
Summary of the method: as §1

[8] = tested on: foxtail, green (green foxtail, Setaria viridis)
Summary of the method: as §1

[9] = tested on: crabgrass, Brazil (Brazilian crabgrass, Digitaria horizontalis)
Summary of the method: as §1

[10] = tested on: pigweed, palmer (palmer pigweed, Amaranthus palmeri)
Summary of the method: as §1

[11] = tested on: surinam grass (Brachiaria decumbens)
Summary of the method: as §1

[12] = tested on: horseweed (Conyza canadensis)
Summary of the method: as §1

corn (Zea mays) = tested on: corn (Zea mays)
Summary of the method: as §1

[13] = tested on: morningglory (Ipomoea coccinea)
Summary of the method: as §1

[14] = tested on: ragweed (common ragweed, Ambrosia elatior)
Summary of the method: as §1

[15] = tested on: foxtail, giant (giant foxtail, Setaria faberii)
Summary of the method: as §1

[16] = tested on: beggarticks (hairy beggarticks, Bidens pilosa)
Summary of the method: as §1

## CN1CC(c2cccc(OC(F)(F)C(F)F)c2)C(C(=O)Nc2cccc(F)c2F)C1=O (centres unmarked) [Compound 392]
[1]; 31 g ai/ha
  Plant response rating: Johnsongrass: 25
[1]; 62 g ai/ha
  Plant response rating: Johnsongrass: 30
[1]; 125 g ai/ha
  Plant response rating: Johnsongrass: 50
[1]; 250 g ai/ha
  Plant response rating: Johnsongrass: 95
[2]; 31 g ai/ha
  Plant response rating: Ryegrass, Italian: 0
[2]; 62 g ai/ha
  Plant response rating: Ryegrass, Italian: 10
[2]; 125 g ai/ha
  Plant response rating: Ryegrass, Italian: 60
[2]; 250 g ai/ha
  Plant response rating: Ryegrass, Italian: 70
[3]; 31 g ai/ha
  Plant response rating: Lambsquarters: 75
[3]; 62 g ai/ha
  Plant response rating: Lambsquarters: 75
[3]; 125 g ai/ha
  Plant response rating: Lambsquarters: 98
[3]; 250 g ai/ha
  Plant response rating: Lambsquarters: 100
[4]; 31 g ai/ha
  Plant response rating: Goosegrass: 85
[4]; 62 g ai/ha
  Plant response rating: Goosegrass: 90
[4]; 125 g ai/ha
  Plant response rating: Goosegrass: 95
[4]; 250 g ai/ha
  Plant response rating: Goosegrass: 95
[5]; 31 g ai/ha
  Plant response rating: Waterhemp: 35
[5]; 62 g ai/ha
  Plant response rating: Waterhemp: 80
[5]; 125 g ai/ha
  Plant response rating: Waterhemp: 70
[5]; 250 g ai/ha
  Plant response rating: Waterhemp: 90
[6]; 31 g ai/ha
  Plant response rating: Panicum, Fall: 95
[6]; 62 g ai/ha
  Plant response rating: Panicum, Fall: 98
[6]; 125 g ai/ha
  Plant response rating: Panicum, Fall: 98
[6]; 250 g ai/ha
  Plant response rating: Panicum, Fall: 98
[7]; 31 g ai/ha
  Plant response rating: Sandbur: 0
[7]; 62 g ai/ha
  Plant response rating: Sandbur: 60
[7]; 125 g ai/ha
  Plant response rating: Sandbur: 60
[7]; 250 g ai/ha
  Plant response rating: Sandbur: 90
[8]; 31 g ai/ha
  Plant response rating: Foxtail, Green: 65
[8]; 62 g ai/ha
  Plant response rating: Foxtail, Green: 90
[8]; 125 g ai/ha
  Plant response rating: Foxtail, Green: 95
[8]; 250 g ai/ha
  Plant response rating: Foxtail, Green: 98
[9]; 31 g ai/ha
  Plant response rating: Crabgrass, Brazil: 98
[9]; 62 g ai/ha
  Plant response rating: Crabgrass, Brazil: 98
[9]; 125 g ai/ha
  Plant response rating: Crabgrass, Brazil: 98
[9]; 250 g ai/ha
  Plant response rating: Crabgrass, Brazil: 98
[10]; 31 g ai/ha
  Plant response rating: Pigweed, Palmer: 0
[10]; 62 g ai/ha
  Plant response rating: Pigweed, Palmer: 20
[10]; 125 g ai/ha
  Plant response rating: Pigweed, Palmer: 35
[10]; 250 g ai/ha
  Plant response rating: Pigweed, Palmer: 90
[11]; 31 g ai/ha
  Plant response rating: Surinam Grass: 0
[11]; 62 g ai/ha
  Plant response rating: Surinam Grass: 0
[11]; 125 g ai/ha
  Plant response rating: Surinam Grass: 15
[11]; 250 g ai/ha
  Plant response rating: Surinam Grass: 30
[12]; 31 g ai/ha
  Plant response rating: Horseweed: 0
[12]; 62 g ai/ha
  Plant response rating: Horseweed: 0
[12]; 125 g ai/ha
  Plant response rating: Horseweed: 98
[12]; 250 g ai/ha
  Plant response rating: Horseweed: 100
Corn (Zea mays); 31 g ai/ha
  Plant response rating: Corn: 0
Corn (Zea mays); 62 g ai/ha
  Plant response rating: Corn: 15
Corn (Zea mays); 125 g ai/ha
  Plant response rating: Corn: 50
Corn (Zea mays); 250 g ai/ha
  Plant response rating: Corn: 70
[13]; 31 g ai/ha
  Plant response rating: Morningglory: 0
[13]; 62 g ai/ha
  Plant response rating: Morningglory: 0
[13]; 125 g ai/ha
  Plant response rating: Morningglory: 0
[13]; 250 g ai/ha
  Plant response rating: Morningglory: 0
[14]; 31 g ai/ha
  Plant response rating: Ragweed: 0
[14]; 62 g ai/ha
  Plant response rating: Ragweed: 0
[14]; 125 g ai/ha
  Plant response rating: Ragweed: 0
[14]; 250 g ai/ha
  Plant response rating: Ragweed: 65
[15]; 31 g ai/ha
  Plant response rating: Foxtail, Giant: 90
[15]; 62 g ai/ha
  Plant response rating: Foxtail, Giant: 95
[15]; 125 g ai/ha
  Plant response rating: Foxtail, Giant: 98
[15]; 250 g ai/ha
  Plant response rating: Foxtail, Giant: 98
[16]; 31 g ai/ha
  Plant response rating: Beggarticks: 0
[16]; 62 g ai/ha
  Plant response rating: Beggarticks: 0
[16]; 125 g ai/ha
  Plant response rating: Beggarticks: 0
[16]; 250 g ai/ha
  Plant response rating: Beggarticks: 0
